Results taken from patent US7375180B2, “Methods and compositions related to IRM compounds and Toll-like receptor 8” (3M Innovative Properties Company, priority 2003, dated 2008).

Key:
TLR8 [1] = molecular target: T1, TLR8 (Homo sapiens, UniProt Q9NR97); experiment: NF-κB-luciferase reporter activation in HEK293-TLR8 cells, 10 μM IRM (Example 1); assay type: cell-based; parameters: expressed in transfected cells; host or cells: HEK293 (ATCC CRL-1573), pIRES vector, G-418 selected, co-transfected with NFkB-luc reporter; conditions: for Fold Increase Over DMSO Control, HEK293-TLR8: 16 hours, luciferase signal, TLR8-transfected cells; for Fold Increase Over DMSO Control, HEK293-TLR8 / HEK293-vector: ratio of TLR8-transfected to vector-transfected cells
T1 sequence (Q9NR97 27-1041): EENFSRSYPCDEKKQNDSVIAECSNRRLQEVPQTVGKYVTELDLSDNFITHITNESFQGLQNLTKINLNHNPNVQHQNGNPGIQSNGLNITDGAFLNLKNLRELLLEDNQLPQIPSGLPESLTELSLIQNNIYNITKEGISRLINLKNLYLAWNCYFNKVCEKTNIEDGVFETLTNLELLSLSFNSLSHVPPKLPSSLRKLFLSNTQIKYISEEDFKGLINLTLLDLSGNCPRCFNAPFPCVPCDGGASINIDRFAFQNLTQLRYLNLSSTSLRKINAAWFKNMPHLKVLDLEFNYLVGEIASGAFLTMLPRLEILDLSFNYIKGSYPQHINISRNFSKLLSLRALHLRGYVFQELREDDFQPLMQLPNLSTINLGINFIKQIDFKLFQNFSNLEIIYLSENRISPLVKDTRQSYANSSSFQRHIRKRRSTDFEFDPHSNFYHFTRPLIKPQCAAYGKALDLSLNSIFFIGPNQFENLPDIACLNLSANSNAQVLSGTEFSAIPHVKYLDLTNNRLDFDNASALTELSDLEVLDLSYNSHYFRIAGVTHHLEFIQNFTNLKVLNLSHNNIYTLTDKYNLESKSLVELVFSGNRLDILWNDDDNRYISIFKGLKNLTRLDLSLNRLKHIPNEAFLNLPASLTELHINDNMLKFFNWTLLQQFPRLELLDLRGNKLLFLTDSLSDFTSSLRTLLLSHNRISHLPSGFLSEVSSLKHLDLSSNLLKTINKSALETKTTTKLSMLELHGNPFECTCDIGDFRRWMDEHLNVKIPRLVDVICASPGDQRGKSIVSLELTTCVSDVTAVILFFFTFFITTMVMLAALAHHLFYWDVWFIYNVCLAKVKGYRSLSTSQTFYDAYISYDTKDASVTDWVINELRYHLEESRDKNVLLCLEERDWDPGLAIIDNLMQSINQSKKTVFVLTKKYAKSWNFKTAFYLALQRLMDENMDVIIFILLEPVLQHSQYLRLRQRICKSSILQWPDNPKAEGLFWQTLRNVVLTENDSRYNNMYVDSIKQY
Excerpt: (§1) HEK293 cells, derived from human embryonic kidney cells, may be co-transfected with (1) either a control vector (HEK293-vector) or a vector construct including human TLR8 (HEK293-TLR8), and (2) an NF-κB-luciferase reporter. The NF-κB-luciferase reporter provides a luciferase signal upon NF-κB activation in a transfected cell. Thus, TLR8-mediated NF-κB activity can be detected by exposing the cells transfected with vector and the cells transfected with the TLR8 construct to a test compound, then comparing the luciferase signal of the vector-transfected cells with the luciferase signal of the cells transfected with the TLR8 construct.
(§2) HEK293 cells were cultured in 90% Minimum Essential Medium (MEM) with 2 mM L-glutamine and Earle's Balanced Salt Solution (Invitrogen Corp., Rockville, Md.) adjusted to contain 1.5 g/L sodium bicarbonate, 0.1 mM non-essential amino acids, and 1.0 mM sodium pyruvate; 10% heat-inactivated fetal calf serum. The cells were incubated at 37° C., 8% CO2.
(§3) The cells were co-transfected with (1) pIRES (BD Biosciences Clontech, Palo Alto, Calif.) either (a) unmodified (HEK293-vector) or (b) containing human TLR8 (HEK293-TLR8), and (2) NFkB-luc reporter (Stratagene, La Jolla, Calif.) in a 10:1 ratio with Fugene 6 transfection reagent (Roche Diagnostics Corp., Indianapolis, Ind.) following the manufacturer's instructions.
(§4) The cells were stimulated with 1 μL of IRM compounds at 1 mM in DMSO (final IRM concentration of 10 μM) or 1 μL DMSO as a control. The plates were then incubated an additional 16 hours at 37° C., 5% CO2. Luminescence was measured on an LMAX luminometer (Molecular Devices Corp., Sunnyvale, Calif.).

HEK293-vector = experiment: NF-κB-luciferase reporter activation in HEK293-vector control cells, 10 μM IRM (Example 1); assay type: cell-based, human; conditions: 16 hours, luciferase signal, vector-transfected cells; for fold induction at 10 µM: Homo sapiens, read-out: Fold Increase Over DMSO Control, HEK293-vector
Excerpt: as §1, §2, §3, §4

TLR8 [2] = molecular target: T1, TLR8; experiment: Identification as TLR8 activator or non-activator (negative control compound); assay type: cell-based; conditions: used as negative control in monocyte, dendritic cell and macrophage tests

| SMILES | Fold Increase Over DMSO Control, HEK293-TLR8 (TLR8 [1]) [fold] | Fold Increase Over DMSO Control, HEK293-TLR8 / HEK293-vector (TLR8 [1]) | TLR8 activation (in words) (TLR8 [2]) | Fold Increase Over DMSO Control, HEK293-vector (HEK293-vector) [fold] | fold induction at 10 µM (HEK293-vector) |
| --- | --- | --- | --- | --- | --- |
| COCCc1nc2c(N)nc3ccccc3c2n1CC(C)(C)O [IRM 2, 4-amino-α,α-dimethyl-2-methoxyethyl-1H-imidazo[4,5-c]quinoline-1-ethanol] | 10.18 | 8.8 |  | 1.16 |  |
| CCOCc1nc2c(N)nc3ccccc3c2n1CCOCCCOCc1ccccc1 [IRM 4, 1-{2-[3-(benzyloxy)propoxy]ethyl}-2-(ethoxymethyl)-1H-imidazo[4,5-c]quinolin-4-amine] | 2.64 | 6.4 |  |  | 0.41 |
| CCCCNC(=O)NCCCCn1c(CCCC)nc2c(N)nc3cccnc3c21 [IRM 5, N-[4-(4-amino-2-butyl-1H-imidazo[4,5-c][1,5]naphthyridin-1-yl)butyl]-n′-butylurea] | 2.13 | 2.5 |  | 0.84 |  |
| CCCCc1nc2c(N)nc3cccnc3c2n1CCNC(=O)C(N)CC(C)C (stereo not shown) [IRM 6, N^1-[2-(4-amino-2-butyl-1H-imidazo[4,5-c][1,5]naphthyridin-1-yl)ethyl]-2-amino-4-methylpentanamide] | 9.24 | 7.8 |  |  | 1.19 |
| Nc1nc2ccccc2c2c1ncn2CCCCNC(=O)c1ccccc1Oc1ccccc1 [IRM 7, N^1-[4-(4-amino-1H-imidazo[4,5-c]quinolin-1-yl)butyl]-2-phenoxybenzamide] | 10.69 | 10.5 |  |  | 1.02 |
| CCOCc1nc2c(N)nc3ccccc3c2n1CCCNC(=S)Nc1cccc(C#N)c1 [IRM 14, N-{3-[4-amino-2-(ethoxymethyl)-1H-imidazo[4,5-c]quinolin-1-yl]propyl}-n′-(3-cyanophenyl)thiourea] | 10.00 | 7.9 |  | 1.26 |  |

Continued, in another order:

| Fold Increase Over DMSO Control, HEK293-TLR8 (TLR8 [1]) [fold] | Fold Increase Over DMSO Control, HEK293-TLR8 / HEK293-vector (TLR8 [1]) | TLR8 activation (in words) (TLR8 [2]) | SMILES | Fold Increase Over DMSO Control, HEK293-vector (HEK293-vector) [fold] | fold induction at 10 µM (HEK293-vector) |
| --- | --- | --- | --- | --- | --- |
| 2.38 | 2.0 |  | Nc1nc2ccccc2c2c1ncn2CCOCC#Cc1ccncc1.O=C(O)C(F)(F)F.O=C(O)C(F)(F)F [IRM 8, 1-(2-{[3-(4-pyridyl)-2-propynyl]oxy}ethyl)-1H-imidazo[4,5-c]quinolin-4-amine bis(trifluoroacetate)] |  | 1.18 |
| 8.64 | 11.2 |  | CCCCc1nc2c(N)nc3ccccc3c2n1CCNS(C)(=O)=O [IRM 9, N-[2-(4-amino-2-butyl-1H-imidazo[4,5-c]quinolin-1-yl)ethyl]methanesulfonamide] |  | 0.77 |
| 7.25 | 6.7 |  | COCCc1nc2c(N)nc3ccccc3c2n1CCOCCNC(=O)Nc1ccccc1 [IRM 10, N-(2-{2-[4-amino-2-(2-methoxyethyl)-1H-imidazo[4,5-c]quinolin-1-yl]ethoxy}ethyl)-n′-phenylurea] | 1.08 |  |
| 3.14 | 2.1 |  | CCOCc1nc2c(N)nc3ccccc3c2n1CC(C)(C)N [IRM 11, 1-(2-amino-2-methylpropyl)-2-(ethoxymethyl)-1H-imidazo[4,5-c]quinolin-4-amine] |  | 1.47 |
| 6.04 | 5.2 |  | CCc1nc2c(N)nc3ccccc3c2n1CCCCS(=O)(=O)c1cc(Cl)cc(Cl)c1 [IRM 12, 1-{4-[(3,5-dichlorophenyl)sulfonyl]butyl}-2-ethyl-1H-imidazo[4,5-c]quinolin-4-amine] |  | 1.16 |
| 2.33 | 2.3 |  | CCOCc1nc2c(N)nc3ccccc3c2n1CCOCCNC(=O)NC1CCCCC1 [IRM 13, N-(2-{2-[4-amino-2-(ethoxymethyl)-1H-imidazo[4,5-c]quinolin-1-yl]ethoxy}ethyl)-n′-cyclohexylurea] | 0.99 |  |
| 2.14 | 2.7 |  | CCCCc1nc2c(N)nc3ccccc3c2n1CC(C)(C)CNC(=O)c1ccccc1 [IRM 15, N-[3-(4-amino-2-butyl-1H-imidazo[4,5-c]quinolin-1-yl)-2,2-dimethylpropyl]benzamide] |  | 0.78 |
|  |  | does not activate TLR8 | CCc1nc2c(N)nc3ccccc3c2n1CCCCNS(C)(=O)=O [IRM 16, N-[4-(4-amino-2-ethyl-1H-imidazo[4,5-c]quinolin-1-yl)butyl]methanesulfonamide] |  |  |
